Experimental findings from patent US12084420B2, “Indoline compounds for inhibiting KIF18A” (Volastra Therapeutics, Inc., priority 2021, dated 2024) are described below.

The structures appear in SMILES notation.

Chain of hKIF18A (1-374) (Q8NI77 whole entry, looked up): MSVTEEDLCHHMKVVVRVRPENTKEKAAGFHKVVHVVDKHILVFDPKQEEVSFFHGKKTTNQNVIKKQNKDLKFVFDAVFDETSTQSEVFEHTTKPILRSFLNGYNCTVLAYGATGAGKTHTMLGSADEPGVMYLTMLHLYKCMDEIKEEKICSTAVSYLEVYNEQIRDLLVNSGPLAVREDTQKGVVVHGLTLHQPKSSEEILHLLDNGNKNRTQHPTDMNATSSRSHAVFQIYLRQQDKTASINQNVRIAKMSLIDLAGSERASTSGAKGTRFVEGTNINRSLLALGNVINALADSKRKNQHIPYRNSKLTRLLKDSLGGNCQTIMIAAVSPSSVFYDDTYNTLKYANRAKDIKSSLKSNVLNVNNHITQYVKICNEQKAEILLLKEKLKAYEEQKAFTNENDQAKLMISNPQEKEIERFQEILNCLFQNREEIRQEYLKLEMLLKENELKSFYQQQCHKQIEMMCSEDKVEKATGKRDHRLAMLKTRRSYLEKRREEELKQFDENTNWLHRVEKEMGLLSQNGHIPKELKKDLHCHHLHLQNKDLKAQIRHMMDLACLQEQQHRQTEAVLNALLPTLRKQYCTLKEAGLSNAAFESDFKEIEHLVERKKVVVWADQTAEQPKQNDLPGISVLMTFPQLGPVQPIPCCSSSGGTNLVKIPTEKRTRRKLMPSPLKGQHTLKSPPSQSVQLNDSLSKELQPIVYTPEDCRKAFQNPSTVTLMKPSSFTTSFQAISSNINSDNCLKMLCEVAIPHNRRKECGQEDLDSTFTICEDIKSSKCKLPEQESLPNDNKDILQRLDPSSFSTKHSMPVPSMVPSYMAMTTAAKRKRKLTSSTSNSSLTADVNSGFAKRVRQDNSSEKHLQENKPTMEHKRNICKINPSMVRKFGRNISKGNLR
Chain of hKIF18A (1-374) (Q2XVP4 whole entry partner, looked up): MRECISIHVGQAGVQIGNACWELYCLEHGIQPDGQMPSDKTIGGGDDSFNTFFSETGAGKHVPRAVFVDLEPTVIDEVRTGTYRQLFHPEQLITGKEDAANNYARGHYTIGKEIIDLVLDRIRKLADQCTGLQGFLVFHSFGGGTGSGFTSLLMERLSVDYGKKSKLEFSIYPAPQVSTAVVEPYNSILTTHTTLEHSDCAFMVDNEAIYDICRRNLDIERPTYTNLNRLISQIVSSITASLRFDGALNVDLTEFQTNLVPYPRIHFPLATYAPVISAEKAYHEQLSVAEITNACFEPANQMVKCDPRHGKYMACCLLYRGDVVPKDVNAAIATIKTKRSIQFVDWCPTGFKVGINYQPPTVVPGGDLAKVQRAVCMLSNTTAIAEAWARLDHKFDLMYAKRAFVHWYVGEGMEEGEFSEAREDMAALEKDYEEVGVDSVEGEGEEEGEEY
Chain of hKIF18A (1-374) (P02554 whole entry partner, looked up): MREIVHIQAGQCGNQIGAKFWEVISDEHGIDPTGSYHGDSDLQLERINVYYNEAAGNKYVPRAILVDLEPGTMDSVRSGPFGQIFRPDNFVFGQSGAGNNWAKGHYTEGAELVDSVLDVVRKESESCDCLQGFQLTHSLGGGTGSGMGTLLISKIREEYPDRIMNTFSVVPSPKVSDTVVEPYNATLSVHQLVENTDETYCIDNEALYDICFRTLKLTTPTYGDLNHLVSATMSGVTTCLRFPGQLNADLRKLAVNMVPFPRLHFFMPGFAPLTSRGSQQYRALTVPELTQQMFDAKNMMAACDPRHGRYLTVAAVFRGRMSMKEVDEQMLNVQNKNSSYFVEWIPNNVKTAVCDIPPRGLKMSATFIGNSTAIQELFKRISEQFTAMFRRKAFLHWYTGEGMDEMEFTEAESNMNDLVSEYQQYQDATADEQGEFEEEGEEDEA

This test addresses hKIF18A (1-374) (Homo sapiens (Human), UniProt Q8NI77). Briefly: Inhibition of KIF18A microtubule-dependent ATPase activity (ADP-Glo). Conditions: KIF18A microtubule-dependent ATPase activity, biochemical assay.
In the case of `C=CCC1CC1NS(=O)(=O)c1cccc(C(=O)N2CC3(CCC4(CC4)CC3)c3cc(NS(C)(=O)=O)ccc32)c1` (stereo not shown) [Compound 235, N-(2-allylcyclopropyl)-3-(5″- (methylsulfonamido)dispiro[cyclopropane-1,1′-cyclohexane-4′,3″-indoline]-1″-carbonyl)benzenesulfonamide], the IC50 turned out to be 22 nM.

`CS(=O)(=O)Nc1ccc2c(c1)C1(CCCCC1)CN2C(=O)c1cccc(S(=O)(=O)N2CCCCC2)c1` [Compound 240, N-(1′-(3-(piperidin-1-ylsulfonyl)benzoyl)spiro[cyclohexane-1,3′-indolin]-5′-yl)methanesulfonamide] had an IC50 of 40 nM.

On to `CS(=O)(=O)Nc1ccc2c(c1)C1(CCCCC1)CN2C(=O)c1cccc(S(=O)(=O)N2CCCC2)c1` [Compound 241, N-(1′-(3-(pyrrolidin-1-ylsulfonyl)benzoyl)spiro[cyclohexane-1,3′-indolin]-5′-yl)methanesulfonamide], for which the half-inhibitory concentration (IC50) is 180 nM.

Regarding `CC(C)(C)NS(=O)(=O)c1cccc(C(=O)N2CC3(CC=CC3)c3cc(NS(C)(=O)=O)ccc32)c1` [Compound 243, N-(tert-butyl)-3-(5′-(methylsulfonamido)spiro[cyclopentane-1,3′-indolin]-3-en-1′-carbonyl)benzenesulfonamide], half-maximal inhibition (IC50) was put at 140 nM.

In turn, `CC1(C)CCN1S(=O)(=O)c1cccc(C(=O)N2CC3(CCC4(CC4)CC3)c3cc(NS(C)(=O)=O)ccc32)c1` [Compound 245, N-(1″-(3-((2,2-dimethylazetidin-1-yl)sulfonyl)benzoyl)dispiro[cyclopropane-1,1′-cyclohexane-4′,3″-indolin]-5″- yl)methanesulfonamide] displayed an IC50 of 34 nM.

`CC1CCN(S(=O)(=O)c2cccc(C(=O)N3CC4(CCC5(CC5)CC4)c4cc(NS(C)(=O)=O)ccc43)c2)C1` (stereo not shown) [Compound 249, N-(1″-(3-((3-methylpyrrolidin-1-yl)sulfonyl)benzoyl)dispiro[cyclopropane-1,1′-cyclohexane-4′,3″-indolin]-5″- yl)methanesulfonamide] had an IC50 of 9 nM.

As to `CS(=O)(=O)c1ccc2c(c1)C1(CCCCC1)CN2C(=O)c1cccc(S(=O)(=O)N2CCCCC2)c1` [Compound 250, (5′-(methylsulfonyl)spiro[cyclohexane-1,3′-indolin]-1′-yl)(3-(piperidin-1-ylsulfonyl)phenyl)methanone], half-maximal inhibition (IC50) was put at 670 nM.

For the compound `CC1CCC2(C1)CN(C(=O)c1cccc(S(=O)(=O)NC(C)(C)C)c1)c1ccc(NS(C)(=O)=O)cc12` (stereo not shown) [Compound 252, N-(tert-butyl)-3-(3-methyl-5′-(methylsulfonamido)spiro[cyclopentane-1,3′-indoline]-1′-carbonyl)benzenesulfonamide], the IC50 came to 34 nM.

`CC1(O)CN(S(=O)(=O)c2cccc(C(=O)N3CC4(CCC5(CC5)CC4)c4cc(NS(C)(=O)=O)ccc43)c2)C1` [Compound 255, N-(1″-(3-((3-hydroxy-3-methylazetidin-1-yl)sulfonyl)benzoyl)dispiro[cyclopropane-1,1′-cyclohexane-4′,3″-indolin]-5″- yl)methanesulfonamide] came in with an IC50 of 63 nM.

Take `C=C1CN(S(=O)(=O)c2cccc(C(=O)N3CC4(CCC5(CC5)CC4)c4cc(NS(C)(=O)=O)ccc43)c2)C1` [Compound 258]: the IC50 worked out at 14 nM.

As for `CC1CN(S(=O)(=O)c2cccc(C(=O)N3CC4(CCC5(CC5)CC4)c4cc(NS(C)(=O)=O)ccc43)c2)C1` [Compound 260, N-(1″-(3-((3-methylazetidin-1-yl)sulfonyl)benzoyl)dispiro[cyclopropane-1,1′-cyclohexane-4′,3″-indolin]-5″- yl)methanesulfonamide], the IC50 came out at 12 nM.

The compound `CCS(=O)(=O)Nc1ccc2c(c1)C1(CCC3(CC3)CC1)CN2C(=O)c1cccc(S(=O)(=O)NC2CCC2)c1` [Compound 261, N-cyclobutyl-3-(5″- (ethylsulfonamido)dispiro[cyclopropane-1,1′-cyclohexane-4′,3″-indoline]-1″- carbonyl)benzenesulfonamide] yielded an IC50 of 9.3 nM.

With `CS(=O)(=O)Nc1ccc2c(c1)C1(CCC3(CC3)CC1)CN2C(=O)c1cccc(S(=O)(=O)NC2(C#N)CC2)c1` [Compound 264, N-(1-cyanocyclopropyl)-3-(5″- (methylsulfonamido)dispiro[cyclopropane-1,1′-cyclohexane-4′,3″-indoline]-1″-carbonyl)benzenesulfonamide], half-maximal inhibition (IC50) was put at 35 nM.

The compound `CC(C)(C)NS(=O)(=O)c1csc(C(=O)N2CC3(CCC4(CC4)CC3)c3cc(NS(C)(=O)=O)ccc32)c1` [Compound 268, N-(tert-butyl)-5-(5″- (methylsulfonamido)dispiro[cyclopropane-1,1′-cyclohexane-4′,3″-indoline]-1″-carbonyl)thiophene-3-sulfonamide] registered a half-inhibitory concentration (IC50) of 77 nM.

Take `CS(=O)(=O)Nc1ccc2c(c1)C1(CCC3(CC3)CC1)CN2C(=O)c1cccc([S+]([O-])C2CCCC2)c1` (stereo not shown) [Compound 270, N-(1″-(3-(cyclopentylsulfinyl)benzoyl)dispiro [cyclopropane-1,1′-cyclohexane-4′,3″- indolin]-5″-yl)methanesulfonamide]: the IC50 came to 110 nM.

The compound `CCS(=O)(=O)Nc1ccc2c(c1)C1(CCC(F)(F)CC1)CN2C(=O)c1cc(S(=O)(=O)N2CC3(CCC3)C2)cs1` [Compound 272, N-(1′-(4-((2-azaspiro[3.3]heptan-2-yl)sulfonyl)thiophene-2-carbonyl)-4,4-difluorospiro[cyclohexane-1,3′-indolin]-5′-yl)ethanesulfonamide] had an IC50 of 38 nM.

`CC(C)(C)NS(=O)(=O)c1cc(C(=O)N2CC3(CCC4(CC4)CC3)c3cc(NS(=O)(=O)CCO)ccc32)cs1` [Compound 274, N-(tert-butyl)-4-(5″-((2-hydroxyethyl)sulfonamido)dispiro [cyclopropane-1,1′-cyclohexane-4′,3″- indoline]-1″-carbonyl)thiophene-2-sulfonamide] showed an IC50 of 6 nM.

`CCS(=O)(=O)Nc1ccc2c(c1)C1(CCC3(CC3)CC1)CN2C(=O)c1csc(S(=O)(=O)NC(C)(C)C)c1` [Compound 275, N-(tert-butyl)-4-(5″- (ethylsulfonamido)dispiro[cyclopropane-1,1′-cyclohexane-4′,3″-indoline]-1″- carbonyl)thiophene-2-sulfonamide] displayed an IC50 of 8 nM.

As for `CC(C)(C)NS(=O)(=O)c1cc(C(=O)N2CC3(CCC(F)(F)CC3)c3cc(NS(C)(=O)=O)ccc32)cs1` [Compound 277, N-(tert-butyl)-4-(4,4-difluoro-5′-(methylsulfonamido)spiro[cyclohexane-1,3′-indoline]-1′-carbonyl)thiophene-2-sulfonamide], the IC50 turned out to be 41 nM.

`CS(=O)(=O)Nc1ccc2c(c1)C1(CCC3(CC3)CC1)CN2C(=O)c1csc(S(=O)(=O)N2CC3(CCC3)C2)c1` [Compound 279, N-(1″-(5-((2-azaspiro[3.3]heptan-2-yl)sulfonyl)thiophene-3-carbonyl)dispiro[cyclopropane-1,1′-cyclohexane-4′,3″-indolin]-5″- yl)methanesulfonamide]: the midpoint of inhibition, the IC50, lay at 6.3 nM.

On to `CS(=O)(=O)Nc1ccc2c(c1)C1(CCC3(CC3)CC1)CN2C(=O)c1csc(S(=O)(=O)N2CCC(F)(F)CC2)c1` [Compound 281, N-(1″-(5-((4,4-difluoropiperidin-1-yl)sulfonyl)thiophene-3-carbonyl)dispiro[cyclopropane-1,1′-cyclohexane-4′,3″-indolin]-5″- yl)methanesulfonamide], for which half-maximal inhibition (IC50) required 13 nM.

Take `CS(=O)(=O)Nc1ccc2c(c1)C1(CCC3(CC3)CC1)CN2C(=O)c1csc(S(=O)(=O)N2CC3(CCO3)C2)c1` [Compound 283, N-(1″-(5-((1-oxa-6-azaspiro[3.3]heptan-6-yl)sulfonyl)thiophene-3-carbonyl)dispiro[cyclopropane-1,1′-cyclohexane-4′,3″-indolin]-5″- yl)methanesulfonamide]: half-maximal inhibition (IC50) was put at 18 nM.

As to `CS(=O)(=O)Nc1ccc2c(c1)C1(CCCCC1)CN2C(=O)c1csc(S(=O)(=O)NC2CCC2)c1` [Compound 284, N-cyclobutyl-4-(5′-(methylsulfonamido)spiro[cyclohexane-1,3′-indoline]-1′-carbonyl)thiophene-2-sulfonamide], the IC50 was 26 nM.

The compound `CC1CCC(NS(=O)(=O)c2cccc(C(=O)N3CC4(CCC5(CC5)CC4)c4cc(NS(C)(=O)=O)ccc43)c2)C1` (stereo not shown) [Compound 285, N-(3-methylcyclopentyl)-3-(5″- (methylsulfonamido)dispiro[cyclopropane-1,1′-cyclohexane-4′,3″-indoline]-1″-carbonyl)benzenesulfonamide] had an IC50 of 11 nM.

The compound `CS(=O)(=O)Nc1ccc2c(c1)C1(CCC3(CC3)CC1)CN2C(=O)c1cccc(S(=N)(=O)C2CCCC2)c1` (stereo not shown) [Compound 287, N-(1″-(3-(cyclopentanesulfonimidoyl)benzoyl)dispiro[cyclopropane-1,1′-cyclohexane-4′,3″-indolin]-5″- yl)methanesulfonamide] showed an IC50 of 17 nM.

Consider `CC(C)(C)NS(=O)(=O)c1cc(C(=O)N2CC3(CCCCC3)c3cc(NS(=O)(=O)CCO)ccc32)cs1` [Compound 289, N-(tert-butyl)-4-(5′-((2-hydroxyethyl)sulfonamido)spiro [cyclohexane-1,3′-indoline]-1′-carbonyl)thiophene-2-sulfonamide], for which the IC50 is 17 nM.

Compound `CS(=O)(=O)Nc1ccc2c(c1)C1(CCC3(CC3)CC1)CN2C(=O)c1csc(S(=O)(=O)NC2CCC2)c1` [Compound 291, N-cyclobutyl-4-(5″- (methylsulfonamido)dispiro[cyclopropane-1,1′-cyclohexane-4′,3″-indoline]-1″-carbonyl)thiophene-2-sulfonamide] yielded an IC50 of 5.8 nM.

On to `CC(=O)NCCCS(=O)(=O)Nc1ccc2c(c1)C1(CCC3(CC3)CC1)CN2C(=O)c1cccc(S(=O)(=O)NC(C)(C)C)c1` [Compound 292, N-(3-(N-(1″-(3-(N-(tert-butyl)sulfamoyl)benzoyl)dispiro [cyclopropane-1,1′-cyclohexane-4′,3″- indolin]-5″- yl)sulfamoyl)propyl)acetamide], for which the IC50 was found to be 22 nM.
